Laboratory results as given in PMC5218480 (PLoS ONE, 2017).

Tested on: MV-4-11 cells
Experiment: Gene expression microarray analysis (Affymetrix PrimeView) and GSEA
Format: cell-based, human
Parameters: RFU PODN (11730768_x_at) / Fold change /veh PODN (11730768_x_at) / RFU LINC00158 (11744669_a_at) / Fold change /veh LINC00158 (11744669_a_at) / RFU DUSP10 (11751237_a_at) / Fold change /veh DUSP10 (11751237_a_at) / RFU ID3 (11757404_x_at) / Fold change /veh ID3 (11757404_x_at) / RFU PLEKHG5 (11737974_s_at) / Fold change /veh PLEKHG5 (11737974_s_at) / RFU LRRC4B (11730491_at) / Fold change /veh LRRC4B (11730491_at) / RFU GIMAP4 (11747438_a_at) / Fold change /veh GIMAP4 (11747438_a_at) / RFU KRT8 (11758183_x_at) / Fold change /veh KRT8 (11758183_x_at) / RFU CNN1 (11734310_a_at) / Fold change /veh CNN1 (11734310_a_at) / RFU VPS37D (11726825_at) / Fold change /veh VPS37D (11726825_at) / RFU C10orf10 (11716522_x_at) / Fold change /veh C10orf10 (11716522_x_at) / RFU KIR2DL2 /// KIR2DL4 /// KIR2DL5A /// KIR2DL5B /// KIR2DS1 /// KIR2DS2 /// KIR2DS3 /// KIR2DS4 /// KIR3DL3 /// KIR3DL3 /// KIR3DS1 (11738374_at) / Fold change /veh KIR2DL2 /// KIR2DL4 /// KIR2DL5A /// KIR2DL5B /// KIR2DS1 /// KIR2DS2 /// KIR2DS3 /// KIR2DS4 /// KIR3DL3 /// KIR3DL3 /// KIR3DS1 (11738374_at) / RFU C1QL1 (11718748_at) / Fold change /veh C1QL1 (11718748_at) / RFU TMPRSS4 (11747572_a_at) / Fold change /veh TMPRSS4 (11747572_a_at) / RFU HAMP (11756126_x_at) / Fold change /veh HAMP (11756126_x_at) / RFU RNFT2 (11725882_a_at) / Fold change /veh RNFT2 (11725882_a_at) / RFU NR4A2 (11747474_a_at) / Fold change /veh NR4A2 (11747474_a_at) / RFU ABCC12 (11746883_a_at) / Fold change /veh ABCC12 (11746883_a_at) / RFU TMEM136 (11760407_x_at) / Fold change /veh TMEM136 (11760407_x_at) / RFU CLDN22 /// WWC2 (11732394_at) / Fold change /veh CLDN22 /// WWC2 (11732394_at) / RFU HLA-DPB1 (11760878_x_at) / Fold change /veh HLA-DPB1 (11760878_x_at) / RFU SPINT1 (11716480_a_at) / Fold change /veh SPINT1 (11716480_a_at) / RFU GAP43 (11754022_s_at) / Fold change /veh GAP43 (11754022_s_at) / RFU A4GNT (11735810_at) / Fold change /veh A4GNT (11735810_at) / RFU PRB3 (11715151_x_at) / Fold change /veh PRB3 (11715151_x_at) / RFU TUBB4B (11761932_at) / Fold change /veh TUBB4B (11761932_at) / RFU CAPN14 (11732068_a_at) / Fold change /veh CAPN14 (11732068_a_at) / RFU TMCC2 (11721928_a_at) / Fold change /veh TMCC2 (11721928_a_at) / RFU IRGQ (11745062_a_at) / Fold change /veh IRGQ (11745062_a_at) / RFU FAM174B (11720279_a_at) / Fold change /veh FAM174B (11720279_a_at) / RFU TMPRSS4 (11748680_a_at) / Fold change /veh TMPRSS4 (11748680_a_at) / RFU FAM212B (11763350_a_at) / Fold change /veh FAM212B (11763350_a_at) / RFU PLEKHG5 (11743358_a_at) / Fold change /veh PLEKHG5 (11743358_a_at) / RFU ZSCAN30 (11745921_a_at) / Fold change /veh ZSCAN30 (11745921_a_at) / RFU CMKLR1 (11741424_a_at) / Fold change /veh CMKLR1 (11741424_a_at) / RFU LOC101060620 /// MAPK8IP1 (11723275_at) / Fold change /veh LOC101060620 /// MAPK8IP1 (11723275_at) / RFU SPTSSB (11747773_x_at) / Fold change /veh SPTSSB (11747773_x_at) / RFU PRSS12 (11739890_at) / Fold change /veh PRSS12 (11739890_at) / RFU BIN1 (11741810_x_at) / Fold change /veh BIN1 (11741810_x_at) / RFU WNT11 (11732464_a_at) / Fold change /veh WNT11 (11732464_a_at) / RFU C10orf10 (11716521_a_at) / Fold change /veh C10orf10 (11716521_a_at) / RFU C5orf56 (11738089_at) / Fold change /veh C5orf56 (11738089_at) / RFU CYB561 (11721691_x_at) / Fold change /veh CYB561 (11721691_x_at) / RFU ANKRD19P (11752326_a_at) / Fold change /veh ANKRD19P (11752326_a_at) / RFU OR2T12 /// OR2T33 /// OR2T8 (11738714_s_at) / Fold change /veh OR2T12 /// OR2T33 /// OR2T8 (11738714_s_at) / RFU VCAN (11748164_a_at) / Fold change /veh VCAN (11748164_a_at) / RFU JSRP1 (11732532_at) / Fold change /veh JSRP1 (11732532_at) / RFU KRTAP10-11 (11738290_x_at) / Fold change /veh KRTAP10-11 (11738290_x_at) / RFU MYO3A (11730013_a_at) / Fold change /veh MYO3A (11730013_a_at) / RFU EBF3 (11725865_a_at) / Fold change /veh EBF3 (11725865_a_at) / RFU CAMK2N1 (11719241_x_at) / Fold change /veh CAMK2N1 (11719241_x_at) / RFU C5orf56 (11738088_a_at) / Fold change /veh C5orf56 (11738088_a_at) / RFU OLFML3 (11715873_a_at) / Fold change /veh OLFML3 (11715873_a_at) / RFU LOC100653217 /// NTM (11731650_a_at) / Fold change /veh LOC100653217 /// NTM (11731650_a_at) / RFU MAPK11 (11762145_a_at) / Fold change /veh MAPK11 (11762145_a_at) / RFU FIZ1 (11724087_x_at) / Fold change /veh FIZ1 (11724087_x_at) / RFU OASL (11726364_x_at) / Fold change /veh OASL (11726364_x_at) / RFU SOX15 (11748057_x_at) / Fold change /veh SOX15 (11748057_x_at) / RFU CD79A (11719716_a_at) / Fold change /veh CD79A (11719716_a_at) / RFU HIST1H1D (11736915_at) / Fold change /veh HIST1H1D (11736915_at) / RFU CASKIN2 (11723855_a_at) / Fold change /veh CASKIN2 (11723855_a_at) / RFU LOC730098 (11760151_x_at) / Fold change /veh LOC730098 (11760151_x_at) / RFU OR4N2 (11742367_at) / Fold change /veh OR4N2 (11742367_at) / RFU PRRT2 (11749266_a_at) / Fold change /veh PRRT2 (11749266_a_at) / RFU SNX32 (11753110_a_at) / Fold change /veh SNX32 (11753110_a_at) / RFU CDHR5 (11726645_a_at) / Fold change /veh CDHR5 (11726645_a_at) / RFU RCAN1 (11760418_a_at) / Fold change /veh RCAN1 (11760418_a_at) / RFU FAM167A (11723789_a_at) / Fold change /veh FAM167A (11723789_a_at) / RFU FAM26E (11764081_at) / Fold change /veh FAM26E (11764081_at) / RFU ISYNA1 (11749810_s_at) / Fold change /veh ISYNA1 (11749810_s_at) / RFU ACY1 (11761880_at) / Fold change /veh ACY1 (11761880_at) / RFU 11764098_at / Fold change /veh 11764098_at / RFU SAMD14 (11745864_x_at) / Fold change /veh SAMD14 (11745864_x_at) / RFU NPB (11741838_a_at) / Fold change /veh NPB (11741838_a_at) / RFU TMPRSS6 (11731388_a_at) / Fold change /veh TMPRSS6 (11731388_a_at) / RFU KRTAP10-2 (11738614_at) / Fold change /veh KRTAP10-2 (11738614_at) / RFU ARHGAP8 /// PRR5-ARHGAP8 (11727945_x_at) / Fold change /veh ARHGAP8 /// PRR5-ARHGAP8 (11727945_x_at) / RFU KRTAP5-7 /// NADSYN1 (11734609_at) / Fold change /veh KRTAP5-7 /// NADSYN1 (11734609_at) / RFU RASL12 (11751679_a_at) / Fold change /veh RASL12 (11751679_a_at) / RFU CDKN2B (11736163_a_at) / Fold change /veh CDKN2B (11736163_a_at) / RFU PRF1 (11729649_at) / Fold change /veh PRF1 (11729649_at) / RFU, ZNF638 /// ZNF638-IT1 / Fold change vs veh, ZNF638 /// ZNF638-IT1 / RFU, PANK3 / Fold change vs veh, PANK3 / RFU, SH3YL1 / Fold change vs veh, SH3YL1 / RFU, ZEB2 / Fold change vs veh, ZEB2 / RFU, NRIP1 / Fold change vs veh, NRIP1 / RFU, PTTG1IP / Fold change vs veh, PTTG1IP / RFU, CAPN2 / Fold change vs veh, CAPN2 / RFU, MED14 / Fold change vs veh, MED14 / RFU, SNORA58 / Fold change vs veh, SNORA58 / RFU, C1orf63 / Fold change vs veh, C1orf63 / RFU, LRRFIP1 / Fold change vs veh, LRRFIP1 / RFU, NDUFAF7 / Fold change vs veh, NDUFAF7 / RFU, SLC12A2 / Fold change vs veh, SLC12A2 / RFU, IBTK / Fold change vs veh, IBTK / RFU, ESF1 / Fold change vs veh, ESF1 / Fold change vs veh, TMEM50B / RFU, TAOK1 / Fold change vs veh, TAOK1 / RFU, ACBD3 / Fold change vs veh, ACBD3 / RFU, TMA16 / Fold change vs veh, TMA16 / RFU, RWDD3 / Fold change vs veh, RWDD3 / RFU, BCAT1 / Fold change vs veh, BCAT1 / RFU, EDEM3 / Fold change vs veh, EDEM3 / RFU, TMEM33 / Fold change vs veh, TMEM33 / RFU, WDR75 / Fold change vs veh, WDR75 / RFU, AHCTF1 / Fold change vs veh, AHCTF1 / RFU, TFRC / Fold change vs veh, TFRC / RFU, ZDHHC17 / Fold change vs veh, ZDHHC17 / RFU, NOM1 / Fold change vs veh, NOM1 / RFU, ARL8B / Fold change vs veh, ARL8B / RFU, ZBTB11 / Fold change vs veh, ZBTB11 / RFU, TAMM41 / Fold change vs veh, TAMM41 / RFU, KIAA1704 /// LOC100996395 / Fold change vs veh, KIAA1704 /// LOC100996395 / RFU, ING1 / Fold change vs veh, ING1 / RFU, TRMT61B / Fold change vs veh, TRMT61B / RFU, FUBP3 / Fold change vs veh, FUBP3 / RFU, TP53 / Fold change vs veh, TP53 / RFU, TNKS2 / Fold change vs veh, TNKS2 / RFU, ZFP14 / Fold change vs veh, ZFP14 / RFU, ACTR2 / Fold change vs veh, ACTR2 / RFU, PPP3R1 / Fold change vs veh, PPP3R1 / RFU, PIK3R1 / Fold change vs veh, PIK3R1 / RFU, HNRNPA1 / Fold change vs veh, HNRNPA1 / RFU, RNF170 / Fold change vs veh, RNF170 / RFU, ZNF28 / Fold change vs veh, ZNF28 / RFU, RNGTT / Fold change vs veh, RNGTT / RFU, OGT / Fold change vs veh, OGT / RFU, BRD1 / Fold change vs veh, BRD1 / RFU, MARS / Fold change vs veh, MARS / RFU, ZNF655 / Fold change vs veh, ZNF655 / RFU, FAHD1 / Fold change vs veh, FAHD1 / RFU, BDP1 / Fold change vs veh, BDP1 / RFU, LRRCC1 / Fold change vs veh, LRRCC1 / RFU, ARID1A / Fold change vs veh, ARID1A / RFU, ZNF146 / Fold change vs veh, ZNF146 / RFU, ZNF330 / Fold change vs veh, ZNF330 / RFU, GPN3 / Fold change vs veh, GPN3 / RFU, C9orf123 / Fold change vs veh, C9orf123 / RFU, N4BP2L2 / Fold change vs veh, N4BP2L2 / RFU, ARFIP1 / Fold change vs veh, ARFIP1 / RFU, FAM179B / Fold change vs veh, FAM179B / RFU, BCL10 / Fold change vs veh, BCL10 / RFU, UHRF1BP1L / Fold change vs veh, UHRF1BP1L / RFU, BET1 / Fold change vs veh, BET1 / RFU, CNOT2 / Fold change vs veh, CNOT2 / RFU, ZNF268 / Fold change vs veh, ZNF268 / Fold change vs veh, ZNF507 / RFU, DGCR2 / Fold change vs veh, DGCR2 / RFU, WDSUB1 / Fold change vs veh, WDSUB1 / Fold change vs veh, HSP90B1 /// MIR3652 / RFU, ADSS / Fold change vs veh, ADSS / RFU, GK / Fold change vs veh, GK / RFU, ZNF148 / Fold change vs veh, ZNF148 / RFU, TAF9 / Fold change vs veh, TAF9 / RFU, SLC1A5 / Fold change vs veh, SLC1A5 / RFU, SLMO2 / Fold change vs veh, SLMO2 / RFU, ABCC4 / Fold change vs veh, ABCC4 / RFU, LOC101060439 /// RAP1B / Fold change vs veh, LOC101060439 /// RAP1B / RFU, RFX7 / Fold change vs veh, RFX7 / RFU, GTPBP10 / Fold change vs veh, GTPBP10 / RFU, CNEP1R1 / Fold change vs veh, CNEP1R1 / RFU, BIVM-ERCC5 /// ERCC5 / Fold change vs veh, BIVM-ERCC5 /// ERCC5 / RFU, ILF3 / Fold change vs veh, ILF3 / RFU 11762660_at / Fold change /veh 11762660_at / RFU VCAN (11757783_s_at) / Fold change /veh VCAN (11757783_s_at) / RFU DDX43 (11728927_at) / Fold change /veh DDX43 (11728927_at) / RFU KRT8 (11758188_x_at) / Fold change /veh KRT8 (11758188_x_at) / RFU NKD1 (11759106_at) / Fold change /veh NKD1 (11759106_at) / RFU SRD5A1 (11742802_a_at) / Fold change /veh SRD5A1 (11742802_a_at) / RFU TPSAB1 /// TPSB2 (11721975_s_at) / Fold change /veh TPSAB1 /// TPSB2 (11721975_s_at) / RFU GSTM3 (11746129_a_at) / Fold change /veh GSTM3 (11746129_a_at) / RFU IL23R (11737362_x_at) / Fold change /veh IL23R (11737362_x_at) / RFU TMEM51 (11727254_a_at) / Fold change /veh TMEM51 (11727254_a_at) / RFU PIWIL2 (11732686_x_at) / Fold change /veh PIWIL2 (11732686_x_at) / RFU ORM1 (11744905_x_at) / Fold change /veh ORM1 (11744905_x_at) / RFU CCDC152 (11743942_at) / Fold change /veh CCDC152 (11743942_at) / RFU ECM1 (11717891_a_at) / Fold change /veh ECM1 (11717891_a_at) / RFU IL23R (11748794_a_at) / Fold change /veh IL23R (11748794_a_at) / RFU TNFAIP8L3 (11732012_x_at) / Fold change /veh TNFAIP8L3 (11732012_x_at) / RFU MBOAT4 (11741988_at) / Fold change /veh MBOAT4 (11741988_at) / RFU 11764193_at / Fold change /veh 11764193_at / RFU TMEM53 (11763286_at) / Fold change /veh TMEM53 (11763286_at) / RFU MAGEB2 (11727129_at) / Fold change /veh MAGEB2 (11727129_at) / RFU TMEM200A (11744735_a_at) / Fold change /veh TMEM200A (11744735_a_at) / RFU CCDC152 (11751479_a_at) / Fold change /veh CCDC152 (11751479_a_at) / RFU FAM211A (11726209_a_at) / Fold change /veh FAM211A (11726209_a_at) / RFU RGS16 (11746705_a_at) / Fold change /veh RGS16 (11746705_a_at) / RFU VCAN (11755009_s_at) / Fold change /veh VCAN (11755009_s_at) / RFU RHOB (11743442_s_at) / Fold change /veh RHOB (11743442_s_at) / RFU RGS16 (11720943_a_at) / Fold change /veh RGS16 (11720943_a_at) / RFU RGS16 (11720944_at) / Fold change /veh RGS16 (11720944_at) / RFU, VPS4B / Fold change vs veh, VPS4B / RFU, CREB1 / Fold change vs veh, CREB1 / RFU, DNAJC13 / Fold change vs veh, DNAJC13 / RFU, GNAQ / Fold change vs veh, GNAQ / RFU, CDK5R1 / Fold change vs veh, CDK5R1 / RFU, ZRANB3 / Fold change vs veh, ZRANB3 / RFU, CUL4A / Fold change vs veh, CUL4A / RFU, CCNY / Fold change vs veh, CCNY / RFU, UFL1 / Fold change vs veh, UFL1 / RFU, COG3 / Fold change vs veh, COG3 / RFU, DIAPH2 / Fold change vs veh, DIAPH2 / RFU, SKA2 / Fold change vs veh, SKA2 / RFU, AFF3 / Fold change vs veh, AFF3 / RFU, LMF1 / Fold change vs veh, LMF1 / RFU, IPO11 / Fold change vs veh, IPO11 / RFU, DFFB / Fold change vs veh, DFFB / RFU, FOXP1 / Fold change vs veh, FOXP1 / RFU, CARD8 / Fold change vs veh, CARD8 / RFU, STRN3 / Fold change vs veh, STRN3 / RFU, ADK / Fold change vs veh, ADK / RFU, RASSF2 / Fold change vs veh, RASSF2 / RFU, WIPF1 / Fold change vs veh, WIPF1 / RFU, LARP1B / Fold change vs veh, LARP1B / RFU, RASA1 / Fold change vs veh, RASA1 / RFU, RB1 / Fold change vs veh, RB1 / RFU, PPFIA1 / Fold change vs veh, PPFIA1 / RFU, MAT2A / Fold change vs veh, MAT2A / RFU, CCT5 / Fold change vs veh, CCT5 / RFU, WDR92 / Fold change vs veh, WDR92 / RFU, CUX1 / Fold change vs veh, CUX1 / RFU, TTC7A / Fold change vs veh, TTC7A / RFU, TMEM135 / Fold change vs veh, TMEM135 / RFU, DEPTOR / Fold change vs veh, DEPTOR / RFU, CPM / Fold change vs veh, CPM / RFU, DNAJB6 / Fold change vs veh, DNAJB6 / RFU, CACNA2D3 / Fold change vs veh, CACNA2D3 / RFU, DTX4 / Fold change vs veh, DTX4 / RFU, TFCP2 / Fold change vs veh, TFCP2 / RFU, GMCL1 /// GMCL1P1 / Fold change vs veh, GMCL1 /// GMCL1P1 / RFU, AEBP2 / Fold change vs veh, AEBP2 / RFU, SNHG1 /// SNORD22 /// SNORD25 /// SNORD26 /// SNORD27 /// SNORD28 /// SNORD29 /// SNORD31 / Fold change vs veh, SNHG1 /// SNORD22 /// SNORD25 /// SNORD26 /// SNORD27 /// SNORD28 /// SNORD29 /// SNORD31 / Fold change (Aza/veh), C12orf56 (ProbeSet 11735607_a_at) / Fold change (ACY-1035/veh), C12orf56 (ProbeSet 11735607_a_at) / Fold change (Aza/veh), FGFR1OP (ProbeSet 11751329_s_at) / Fold change (ACY-1035/veh), FGFR1OP (ProbeSet 11751329_s_at) / Fold change (Aza/veh), VPS36 (ProbeSet 11739960_a_at) / Fold change (ACY-1035/veh), VPS36 (ProbeSet 11739960_a_at) / RFU SYPL1 (11715823_x_at) / Fold change /veh SYPL1 (11715823_x_at) / RFU IGFBP7 (11715501_s_at) / Fold change /veh IGFBP7 (11715501_s_at) / RFU REEP3 (11722064_at) / Fold change /veh REEP3 (11722064_at) / RFU IGLL1 (11728026_x_at) / Fold change /veh IGLL1 (11728026_x_at): dose or concentration left out as unconfirmed
Settings: ProbeSet 11719493_s_at; LIST B

## Nc1ccc(-c2cccs2)cc1NC(=O)c1ccc2c(c1)cc(C1CC1)n2CCN1CCOCC1 [ACY-1035]
  Fold change vs veh, TAF9: 0.84
